In one test the target is T1, Mer (Homo sapiens, UniProt Q12866).
T1 construct: purchased Life Technologies
T1 sequence (Q12866 21-999): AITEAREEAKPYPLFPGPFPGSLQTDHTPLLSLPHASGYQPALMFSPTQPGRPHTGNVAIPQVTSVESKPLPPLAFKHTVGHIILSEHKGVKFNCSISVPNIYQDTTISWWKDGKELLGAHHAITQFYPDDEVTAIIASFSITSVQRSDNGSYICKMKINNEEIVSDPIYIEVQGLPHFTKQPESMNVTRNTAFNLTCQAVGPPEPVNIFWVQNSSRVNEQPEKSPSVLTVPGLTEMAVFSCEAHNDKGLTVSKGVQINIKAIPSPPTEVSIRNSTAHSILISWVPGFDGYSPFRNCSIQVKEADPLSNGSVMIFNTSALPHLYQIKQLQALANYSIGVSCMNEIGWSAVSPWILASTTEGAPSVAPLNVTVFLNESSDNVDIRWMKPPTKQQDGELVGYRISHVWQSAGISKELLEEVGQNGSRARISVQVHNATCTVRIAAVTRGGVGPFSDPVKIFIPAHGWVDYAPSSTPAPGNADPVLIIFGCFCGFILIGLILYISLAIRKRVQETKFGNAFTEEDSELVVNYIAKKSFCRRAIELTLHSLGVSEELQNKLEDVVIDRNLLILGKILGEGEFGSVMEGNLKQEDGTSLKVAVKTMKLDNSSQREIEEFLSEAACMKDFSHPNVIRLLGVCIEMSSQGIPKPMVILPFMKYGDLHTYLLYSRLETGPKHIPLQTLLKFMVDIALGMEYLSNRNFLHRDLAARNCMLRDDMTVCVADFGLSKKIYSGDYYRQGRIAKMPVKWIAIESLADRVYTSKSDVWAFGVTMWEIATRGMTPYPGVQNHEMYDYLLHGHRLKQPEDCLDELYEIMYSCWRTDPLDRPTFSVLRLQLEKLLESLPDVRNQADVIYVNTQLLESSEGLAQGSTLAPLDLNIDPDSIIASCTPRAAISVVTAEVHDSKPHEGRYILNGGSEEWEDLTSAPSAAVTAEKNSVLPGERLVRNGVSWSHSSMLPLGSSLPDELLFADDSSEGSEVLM
In words: LanthaScreen Eu kinase binding assay for Mer. As to conditions: read-out: Mer kinase binding activity (Kd). The gist of the method:
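Kd values come from control-normalized FRET loss, referenced to DMSO vehicle wells, after 1 h at room temperature. Each compound was serially diluted over eight steps in DMSO and competed against Tracer 236 (Alexa Fluor 647) for the kinase, which was tagged by a Eu anti-GST antibody.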

Another test concerns the target CSF1R (Homo sapiens, UniProt P07333). In words: KINOMEscan competition binding assay for CSF1R. More on the design: DNA tag for qPCR (not a peptide); host or cells: E. coli/T7 phage or HEK-293. As to conditions: @ 0.1 uM. In short, it runs like this: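 Values are either % inhibition at 0.1 uM, relative to DMSO (100% Ctrl) and a control compound (0% Ctrl), or Kd from an 11-point 3-fold series fitted with Hill slope −1. DNA-tagged kinase binds immobilized ligand beads with compound for 1 h at room temperature, and eluted kinase is measured by qPCR.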

The mark [1] stands for this setting: read-out: CSF1R kinase binding activity, Percent (%) inhibition.
[2] abbreviates: read-out: CSF1R kinase binding activity, Range.

Where two headings read alike, the source gives them in different places.

CSF1R, sequence (P07333 20-972): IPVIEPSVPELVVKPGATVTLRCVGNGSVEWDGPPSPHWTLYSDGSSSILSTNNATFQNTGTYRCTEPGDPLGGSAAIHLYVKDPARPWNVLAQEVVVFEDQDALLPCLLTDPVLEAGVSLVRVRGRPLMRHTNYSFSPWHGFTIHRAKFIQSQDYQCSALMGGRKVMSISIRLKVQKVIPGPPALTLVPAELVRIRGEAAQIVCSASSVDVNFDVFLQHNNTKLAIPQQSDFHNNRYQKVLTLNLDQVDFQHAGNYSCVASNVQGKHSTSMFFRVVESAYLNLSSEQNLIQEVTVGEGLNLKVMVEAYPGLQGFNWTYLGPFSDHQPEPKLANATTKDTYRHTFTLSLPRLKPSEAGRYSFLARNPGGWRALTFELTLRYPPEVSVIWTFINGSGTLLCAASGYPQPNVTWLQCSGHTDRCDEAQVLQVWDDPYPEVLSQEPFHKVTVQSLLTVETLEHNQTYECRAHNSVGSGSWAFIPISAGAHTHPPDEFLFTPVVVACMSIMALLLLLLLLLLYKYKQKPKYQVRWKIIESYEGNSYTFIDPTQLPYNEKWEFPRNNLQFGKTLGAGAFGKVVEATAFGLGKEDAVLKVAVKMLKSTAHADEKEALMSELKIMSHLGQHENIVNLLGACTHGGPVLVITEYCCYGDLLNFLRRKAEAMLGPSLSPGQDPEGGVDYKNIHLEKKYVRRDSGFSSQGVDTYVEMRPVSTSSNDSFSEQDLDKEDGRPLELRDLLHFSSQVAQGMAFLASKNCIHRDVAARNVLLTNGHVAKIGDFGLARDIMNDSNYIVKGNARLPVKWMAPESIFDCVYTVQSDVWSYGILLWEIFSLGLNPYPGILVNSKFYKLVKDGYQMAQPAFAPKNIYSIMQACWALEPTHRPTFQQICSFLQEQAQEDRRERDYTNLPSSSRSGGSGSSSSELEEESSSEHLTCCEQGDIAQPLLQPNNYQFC

Turning to `COc1cc2nccc(Oc3ccc(NC(=O)c4nn(CC5CCCC5)cc4OCC(F)(F)F)nc3)c2cc1OC` [Compound 71], the dissociation constant Kd at Mer was below 0.1 µM. In addition, the inhibition at 0.1 µM on CSF1R (setting [1]) was 88%; at CSF1R (setting [2]), at least 80%.

As to `COc1cc2nccc(Oc3ccc(NC(=O)c4nn(CC5CCNC5)cc4OCC(F)(F)F)nc3)c2cc1OC` (stereo not drawn) [Compound 72], the Kd at Mer is below 0.1 µM. Further, the values for the inhibition at 0.1 µM at CSF1R (setting [1]) and on CSF1R (setting [2]) were 96% and at least 80%, respectively.

In the case of `COc1cc2nccc(Oc3ccc(NC(=O)c4nn(CC5CNC5)cc4OCC(F)(F)F)nc3)c2cc1OC` [Compound 73], the Kd on Mer is 0.1 to 0.5 µM. Moreover, the inhibition at 0.1 µM is 97% at CSF1R (setting [1]) and at least 80% at CSF1R (setting [2]).

As to `COc1cc2nccc(Oc3ccc(NC(=O)c4nn(C5CCNC5)cc4OCC(F)(F)F)c(F)c3)c2cc1OC` (stereo not drawn) [Compound 74], the equilibrium dissociation constant (Kd) on Mer lay in the range of 0.1 to 0.5 µM. Moreover, the inhibition at 0.1 µM was 39% at CSF1R (setting [1]) and below 50% on CSF1R (setting [2]).

On to `COc1cc2nccc(Oc3ccc(NC(=O)c4nn(CCN)cc4OCC(F)(F)F)c(F)c3)c2cc1OC` [Compound 75], for which the Kd on Mer lay in the range of 0.1 to 0.5 µM. The inhibition at 0.1 µM is 57% on CSF1R (setting [1]) and 50 to 80% at CSF1R (setting [2]).

On to `COc1cc2nccc(Oc3ccc(NC(=O)c4nn(CC(C)O)cc4OCC(F)(F)F)c(F)c3)c2cc1OC` (stereo not drawn) [Compound 76], for which, on Mer, the Kd is below 0.1 µM. The results for the inhibition at 0.1 µM at CSF1R (setting [1]) and at CSF1R (setting [2]) were 94% and at least 80%, respectively.

In the case of `COc1cc2nccc(Oc3ccc(NC(=O)c4nn(CCC(F)(F)F)cc4OCC4CCC4)nc3)c2cc1OC` [Compound 166], at Mer, the Kd is below 0.1 µM. Besides, the inhibition at 0.1 µM is 84% on CSF1R (setting [1]) and at least 80% at CSF1R (setting [2]).

As for `CCCn1cc(OCC2CCC2)c(C(=O)Nc2ccc(Oc3ccnc4cc(OC)c(OC(F)(F)F)cc34)cn2)n1` [Compound 167], on Mer, the Kd was below 0.1 µM. In addition, the inhibition at 0.1 µM at CSF1R (setting [1]) is 0%; at CSF1R (setting [2]), below 50%.

As to `COc1cc2nccc(Oc3ccc(NC(=O)c4nn(CCNC5CC5)cc4OCC(F)(F)F)nc3)c2cc1OC` [Compound 168], the Kd on Mer is below 0.1 µM. Also, the inhibition at 0.1 µM at CSF1R (setting [1]) is 95%; at CSF1R (setting [2]), at least 80%.

In the case of `COc1cc2nccc(Oc3ccc(NC(=O)c4nn(CC5CCN(C)C5)cc4OCC(F)(F)F)nc3)c2cc1OC` (stereo not drawn) [Compound 169], the Kd at Mer is below 0.1 µM. Further, the inhibition at 0.1 µM at CSF1R (setting [1]) is 93%; at CSF1R (setting [2]), at least 80%.

Regarding `COc1cc2nccc(Oc3ccc(NC(=O)c4nn(C5CC5)cc4OCCC(F)(F)F)nc3)c2cc1OC` [Compound 170], the Kd on Mer is below 0.1 µM. For the same compound, the figures for the inhibition at 0.1 µM at CSF1R (setting [1]) and at CSF1R (setting [2]) were 90% and at least 80%, respectively.

On to `COCCOc1cn(C2CC2)nc1C(=O)Nc1ccc(Oc2ccnc3cc(OC)c(OC)cc23)nn1` [Compound 171], for which, at Mer, the dissociation constant Kd was 0.1 to 0.5 µM. The figures for the inhibition at 0.1 µM on CSF1R (setting [1]) and on CSF1R (setting [2]) were 60% and 50 to 80%, respectively.

Regarding `COc1cc2nccc(Oc3ccc(NC(=O)c4nn(C5CC5)cc4OCC4CNC4)nn3)c2cc1OC` [Compound 172], the Kd on Mer is at least 0.5 µM. In addition, the inhibition at 0.1 µM was 36% at CSF1R (setting [1]) and below 50% at CSF1R (setting [2]).

Regarding `COc1cc2nccc(Oc3ccc(NC(=O)c4nn(C5CC5)cc4OCCC(F)(F)F)nn3)c2cc1OC` [Compound 173], the equilibrium dissociation constant (Kd) at Mer is below 0.1 µM. In addition, the inhibition at 0.1 µM on CSF1R (setting [1]) is 69%; at CSF1R (setting [2]), 50 to 80%.

In the case of `COc1cc2nccc(Oc3ccc(NC(=O)c4nn(CC(C)O)cc4OCC4CN(C)C4)nc3)c2cc1OC` (stereo not drawn) [Compound 174], the dissociation constant (Kd) on Mer was at least 0.5 µM. Further, the inhibition at 0.1 µM at CSF1R (setting [1]) is 25%; on CSF1R (setting [2]), below 50%.

With `COc1cc2nccc(Oc3ccc(NC(=O)c4nn(CC(C)O)cc4OCC(F)F)nc3)c2cc1OC` (stereo not drawn) [Compound 175], the Kd at Mer is below 0.1 µM. In addition, the figures for the inhibition at 0.1 µM at CSF1R (setting [1]) and at CSF1R (setting [2]) were 97% and at least 80%, respectively.

As to `COc1cc2nccc(Oc3ccc(NC(=O)c4nc(CCC(F)(F)F)oc4CCC4CCC4)nc3)c2cc1OC` [Compound 176], the Kd at Mer fell in the range of 0.1 to 0.5 µM. Further, the inhibition at 0.1 µM at CSF1R (setting [1]) was 40%; on CSF1R (setting [2]), below 50%.

By Kd is commonly meant the free concentration of one partner at which half of the binding sites on the other are occupied at equilibrium, for simple one-to-one binding.

Source of the values: US12162858B2, “Quinoline derivatives as inhibitors of AXL/MER RTK and CSF1R” (QURIENT CO., LTD., priority 2018, dated 2024).
